We go through three molecules from publication PMC7367283, “A PIP2 substitute mediates voltage sensor-pore coupling in KCNQ activation” (Communications Biology, 2020).

The test system of one assay is KCNQ2/KCNQ3 channel. More on the design: method as in PMID 22303005. Particulars: cited from earlier work.
The target in a further assay is IKs (KCNQ1 + KCNE1) (Homo sapiens, UniProt P51787). The assay is described as follows: IKs co-expressed with CiVSP (PIP2 depletion), two-electrode voltage clamp in Xenopus oocytes. Conditions: 100 µM chromanol 293B, bath application after 10 µM CP1. Format: cell-based. From the text:
We co-expressed KCNQ1 with the voltage-dependent lipid phosphatase CiVSP[44] in Xenopus oocytes and recorded KCNQ1 currents using two-electrode voltage clamp with consecutive depolarizing voltage pulses. […] To more directly test CP1 effects, we applied CP1 to the intracellular side of the inside-out membrane patch that expressed IKs channels.
Background: Two-electrode voltage clamp holds a large cell at a set potential and records current.

On to `O=P(O)(O)O[C@@H]1[C@@H](O)[C@H](O)[C@H](O)[C@H](O)[C@H]1OP(=O)(O)O` [I(4,5)P2], for which, in the assay on KCNQ2/KCNQ3 channel, the “effect on channel activity” value is “no effect on channel activity”. Consider `CCS(=O)(=O)N(C)[C@H]1c2cc(C#N)ccc2OC(C)(C)[C@@H]1O` (racemic) [Chromanol 293B, reference compound], for which the “effect on CP1-rescued IKs currents” value on IKs (KCNQ1 + KCNE1) is “inhibited”. Consider `O=P(O)(O)O[C@@H]1[C@H](O)[C@H](O)[C@@H](OP(=O)(O)O)[C@H](OP(=O)(O)O)[C@H]1O` [I(1,4,5)P3], for which, in the assay with KCNQ2/KCNQ3 channel, the “effect on channel activity” value is “no effect on channel activity”.
